Data from patent publication US12195490B2, “STRAD-binding agents and uses thereof” (The Regents of the University of California, priority 2020, dated 2025).

Molecular target: T1, LKB1 (Homo sapiens, UniProt Q15831+Q7RTN6)
T1 sequence (Q15831 1-433): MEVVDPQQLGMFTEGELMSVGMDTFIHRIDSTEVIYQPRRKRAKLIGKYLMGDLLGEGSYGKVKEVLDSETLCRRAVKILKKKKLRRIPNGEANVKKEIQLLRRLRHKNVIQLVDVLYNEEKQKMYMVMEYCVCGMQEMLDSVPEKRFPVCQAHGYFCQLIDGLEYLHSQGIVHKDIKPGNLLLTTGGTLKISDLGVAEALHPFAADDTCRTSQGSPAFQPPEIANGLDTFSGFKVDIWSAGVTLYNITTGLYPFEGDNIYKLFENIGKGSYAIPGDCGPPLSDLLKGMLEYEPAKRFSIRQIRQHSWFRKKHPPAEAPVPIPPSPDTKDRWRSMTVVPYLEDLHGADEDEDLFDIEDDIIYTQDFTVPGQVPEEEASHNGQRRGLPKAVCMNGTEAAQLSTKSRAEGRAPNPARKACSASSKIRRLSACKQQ
T1 sequence (Q7RTN6 1-431): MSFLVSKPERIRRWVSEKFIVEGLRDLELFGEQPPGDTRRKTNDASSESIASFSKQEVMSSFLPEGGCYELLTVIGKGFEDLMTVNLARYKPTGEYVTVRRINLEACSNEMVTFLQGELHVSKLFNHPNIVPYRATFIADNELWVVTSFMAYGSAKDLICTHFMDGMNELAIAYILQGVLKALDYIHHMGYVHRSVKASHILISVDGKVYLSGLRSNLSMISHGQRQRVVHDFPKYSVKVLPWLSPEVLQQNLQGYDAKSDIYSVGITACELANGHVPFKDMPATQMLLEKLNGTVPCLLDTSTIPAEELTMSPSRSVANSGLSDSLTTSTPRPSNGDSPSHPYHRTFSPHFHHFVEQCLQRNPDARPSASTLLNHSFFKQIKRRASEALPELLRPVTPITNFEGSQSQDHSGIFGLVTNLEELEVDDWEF
T1 sequence (Q9Y376 1-341 partner): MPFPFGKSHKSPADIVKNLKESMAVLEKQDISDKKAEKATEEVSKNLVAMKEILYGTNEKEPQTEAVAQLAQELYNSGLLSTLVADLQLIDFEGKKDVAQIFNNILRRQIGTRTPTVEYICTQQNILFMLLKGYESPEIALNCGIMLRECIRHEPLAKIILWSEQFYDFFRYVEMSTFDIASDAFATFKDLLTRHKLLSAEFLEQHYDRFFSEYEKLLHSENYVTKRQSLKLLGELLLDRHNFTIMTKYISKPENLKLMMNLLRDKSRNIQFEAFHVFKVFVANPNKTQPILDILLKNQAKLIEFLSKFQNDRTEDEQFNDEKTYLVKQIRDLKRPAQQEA
Test: in vitro LKB1 functional activity
Assay type: biochemical
Conditions: APA analogs

Row | LKB1 % Act. Increase | Structure (SMILES)
1 | D (D=<1000%) | Cc1ccc(-c2cnc(N)c(C(=O)Nc3ccc(C(=O)NS(C)(=O)=O)cc3)n2)cc1 [SU20668-0478, 3-amino-N-(4-(methylsulfonylcarbamoyl)phenyl)-6-p-tolylpyrazine-2-carboxamide]
2 | C (C=199-1000%) | Cc1ccc(-c2cnc(N)c(C(=O)Nc3ccc(S(C)(=N)=O)cc3)n2)cc1 (stereo not drawn) [SU20668-0490]
3 | C (C=199-1000%) | CCOC(=O)CS(=O)(=O)c1ccc(NC(=O)c2nc(-c3ccc(C)cc3)cnc2N)cc1 [SU20668-0311, ethyl 2-(4-(3-amino-6-p-tolylpyrazine-2-carboxamido)phenylsulfonyl)acetate]
4 | D (D=<1000%) | Cc1ccc(-c2cnc(N)c(C(=O)Nc3ccc(S(=O)(=O)C(F)(F)F)cc3)n2)cc1 [SU20668-0292, 3-amino-6-p-tolyl-N-(4-(trifluoromethylsulfonyl)phenyl)pyrazine-2-carboxamide]
5 | C (C=199-1000%) | CC(=O)NS(=O)(=O)c1ccc(NC(=O)c2nc(-c3ccc(CN(C)C)cc3)cnc2N)cc1 [SU20668-0339, N-(4-(N-acetylsulfamoyl)phenyl)-3-amino-6-(4-((dimethylamino)methyl)phenyl)pyrazine-2-carboxamide]
6 | C (C=199-1000%) | CNS(=O)(=O)c1ccc(NC(=O)c2nc(-c3ccc(C)cc3)cnc2N)cc1 [SU20668-0286, 3-amino-N-(4-(N-methylsulfamoyl)phenyl)-6-p-tolylpyrazine-2-carboxamide]
7 | D (D=<1000%) | CC(=O)NS(=O)(=O)c1ccc(NC(=O)c2nc(-c3ccc(Cl)cc3)cnc2N)cc1 [SU20668-0391, N-(4-(N-acetylsulfamoyl)phenyl)-3-amino-6-(4-chlorophenyl)pyrazine-2-carboxamide]
8 | C (C=199-1000%) | CC(=O)NS(=O)(=O)c1ccc(NC(=O)c2nc(-c3ccc(N4CCN(C)CC4)cc3)cnc2N)cc1 [SU20668-0347, N-(4-(N-acetylsulfamoyl)phenyl)-3-amino-6-(4-(4-methylpiperazin-1-yl)phenyl)pyrazine-2-carboxamide]
9 | D (D=<1000%) | CC(=O)NS(=O)(=O)c1ccc(NC(=O)c2nc(-c3cccc(C(N)=O)c3)cnc2N)cc1 [SU20668-0341, N-(4-(N-acetylsulfamoyl)phenyl)-3-amino-6-(3-carbamoylphenyl)pyrazine-2-carboxamide]
10 | C (C=199-1000%) | CS(=O)(=O)c1ccc(-c2cnc(N)c(C(=O)Nc3ccc(S(N)(=O)=O)cc3)n2)cc1 [SU20668-0309, 3-amino-6-(4-(methylsulfonyl)phenyl)-N-(4-sulfamoylphenyl)pyrazine-2-carboxamide]
11 | D (D=<1000%) | CC(=O)NS(=O)(=O)c1ccc(NC(=O)c2nc(-c3cnc(N)nc3)cnc2N)cc1 [SU20668-0372, N-(4-(N-acetylsulfamoyl)phenyl)-3-amino-6-(2-aminopyrimidin-5-yl)pyrazine-2-carboxamide]
12 | C (C=199-1000%) | CC(=O)NS(=O)(=O)c1ccc(NC(=O)c2nc(-c3ccc4cn[nH]c4c3)cnc2N)cc1 [SU20668-0343, N-(4-(N-acetylsulfamoyl)phenyl)-3-amino-6-(1H-indazol-6-yl)pyrazine-2-carboxamide]
13 | C (C=199-1000%) | Cc1ccc(-c2cnc(N)c(C(=O)Nc3ccc(S(C)(=O)=O)cc3)n2)cc1 [SU20668-0293, 3-amino-N-(4-(methylsulfonyl)phenyl)-6-p-tolylpyrazine-2-carboxamide]
14 | C (C=199-1000%) | CS(=O)(=O)c1ccc(NC(=O)c2nc(-c3ccc(S(C)(=O)=O)cc3)cnc2N)cc1 [SU20668-0317, methyl 3-amino-N,6-bis(4-(methylsulfonyl)phenyl)pyrazine-2-carboxamide]
15 | C (C=199-1000%) | CCS(=O)(=O)c1cccc(-c2cnc(N)c(C(=O)Nc3ccc(S(=O)(=O)NC(C)=O)cc3)n2)c1 [SU20668-0373, N-(4-(N-acetylsulfamoyl)phenyl)-3-amino-6-(3-(ethylsulfonyl)phenyl)pyrazine-2-carboxamide]

More lines, now with the values behind:

Row | Structure (SMILES) | LKB1 % Act. Increase
16 | Cc1ccc(-c2cnc(N)c(C(=O)Nc3ccc(C(=O)O)cc3)n2)cc1 [SU20668-0279, 4-(3-amino-6-p-tolylpyrazine-2-carboxamido)benzoic acid] | C (C=199-1000%)
17 | CCNP(=O)(CS(=O)(=O)c1ccc(NC(=O)c2nc(-c3ccc(C)cc3)cnc2N)cc1)OCC (stereo not drawn) [SU20668-0480, ethyl P-(4-(3-amino-6-p-tolylpyrazine-2-carboxamido)phenylsulfonyl)methyl-N-ethylphosphonamidate] | D (D=<1000%)
18 | COP(=O)(OC)C(C)S(=O)(=O)c1ccc(NC(=O)c2nc(-c3ccc(C)cc3)cnc2N)cc1 (stereo not drawn) [SU20668-0516, dimethyl 1-(4-(3-amino-6-p-tolylpyrazine-2-carboxamido)phenylsulfonyl)ethylphosphonate] | A (A=>4000%)
19 | CCO[P@](C)(=O)CS(=O)(=O)c1ccc(NC(=O)c2nc(-c3ccc(C)cc3)cnc2N)cc1 [SU20668-0518, (S)-ethyl (4-(3-amino-6-p-tolylpyrazine-2-carboxamido)phenylsulfonyl)methyl(methyl)phosphinate] | B (B=399-2000%)
20 | CCOP(=O)(CS(=O)(=O)c1ccc(NC(=O)c2nc(-c3cc(F)ccc3C#N)cnc2N)cc1)OCC [SU20668-0471, diethyl (4-(3-amino-6-(2-cyano-5-fluorophenyl)pyrazine-2-carboxamido)phenylsulfonyl)methylphosphonate] | D (D=<1000%)
21 | COP(=O)(CS(=O)(=O)c1ccc(NC(=O)c2nc(-c3ccc(C)cc3C)cnc2N)cc1)OC [SU20668-0450, dimethyl (4-(3-amino-6-(2,4-dimethylphenyl)pyrazine-2-carboxamido)phenylsulfonyl)methylphosphonate] | D (D=<1000%)
22 | Cc1ccc(-c2cnc(N)c(C(=O)Nc3ccc(C(=O)O)nc3)n2)cc1 [SU20668-0300, 5-(3-amino-6-p-tolylpyrazine-2-carboxamido)picolinic acid] | D (D=<1000%)
23 | Cc1ccc(-c2cnc(N)c(C(=O)Nc3ccc(S(=O)(=O)Nc4cc(C)on4)cc3)n2)cc1 [SU20668-0467, 3-amino-N-(4-(N-(5-methylisoxazol-3-yl)sulfamoyl)phenyl)-6-p-tolylpyrazine-2-carboxamide] | C (C=199-1000%)
24 | Cc1ccc(-c2cnc(N)c(C(=O)Nc3ccc(S(=O)(=O)CC4CCO4)cc3)n2)cc1 (stereo not drawn) [SU20668-0500, 3-amino-N-(4-(oxetan-2-ylmethylsulfonyl)phenyl)-6-p-tolylpyrazine-2-carboxamide] | B (B=399-2000%)
25 | Cc1ccc(-c2cnc(N)c(C(=O)Nc3ccc(C(=O)O)c(F)c3)n2)cc1 [SU20668-0299, 4-(3-amino-6-p-tolylpyrazine-2-carboxamido)-2-fluorobenzoic acid] | D (D=<1000%)
26 | COP(=O)(CS(=O)(=O)c1ccc(NC(=O)c2nc(-c3ccc(C)s3)cnc2N)cc1)OC [SU20668-0448, dimethyl (4-(3-amino-6-(5-methylthiophen-2-yl)pyrazine-2-carboxamido)phenylsulfonyl)methylphosphonate] | C (C=199-1000%)
27 | COP(=O)(CS(=O)(=O)c1ccc(NC(=O)c2nc(-c3cc(F)ccc3Cl)cnc2N)cc1)OC [SU20668-0449, dimethyl (4-(3-amino-6-(2-chloro-5-fluorophenyl)pyrazine-2-carboxamido)phenylsulfonyl)methylphosphonate] | C (C=199-1000%)
28 | CCOP(=O)(CS(=O)(=O)c1ccc(NC(=O)c2nc(-c3ccc(C(F)(F)F)cc3)cnc2N)cc1)OCC [SU20668-0488, diethyl (4-(3-amino-6-(4-(trifluoromethyl)phenyl)pyrazine-2-carboxamido)phenylsulfonyl)methylphosphonate] | D (D=<1000%)
29 | Cc1ccc(-c2cnc(N)c(C(=O)Nc3cnc(S(C)(=O)=O)nc3)n2)cc1 [SU20668-0303, 3-amino-N-(2-(methylsulfonyl)pyrimidin-5-yl)-6-p-tolylpyrazine-2-carboxamide] | D (D=<1000%)
30 | Cc1ccc(-c2cnc(N)c(C(=O)Nc3ccc(S(=O)(=O)NC(=O)CCc4ccccc4)cc3)n2)cc1 [SU20668-0328, 3-amino-N-(4-(N-(3-phenylpropanoyl)sulfamoyl)phenyl)-6-p-tolylpyrazine-2-carboxamide] | D (D=<1000%)
